Reference: the supplement of paper PMC11208160

experiment: recombinant UMI read abundance after kanamycin selection (control-corrected) (log10(CPM+1)); higher = more efficient recombination; extreme values may be limits of the assay; sequences stand for … in AGTGCAGAGAAAATCGGCCAGTTTTCTCTGCCTGCAGTCCGCATGCCGTGGGACCCCTTGGGTTCTAACCTGTTGCCTAGATTTATGCAGCGGACTGCCTTTCTCCCAAAGTGATAAACCGG…AGGTTGGTTTCACT; site = the 11-nt donor
Summary of the method: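 Values, expressed as log10(CPM+1), derive from recombinant UMI counts converted to CPM, averaged across replicates and scaled by control-derived factors. Plating was with IPTG (0.07 mM) plus kanamycin or unselected, two replicates each. The screen pooled donor and donor-binding-loop pairs for the IS621 bridge recombinase in Escherichia coli.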
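Further: IS621 bridge recombinase in Escherichia coli cells against a fixed T5 target plasmid.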

Sequence | recombinant UMI read abundance (log10)
CGAGGCCCATGGACCGGTTTTCCCGGTAATCCGTATTTGGG (site CGAGGTCCTCC) | 0.00542
CGAGTATCATGGACCGGTTTTCCCGGTAATCCGTATTTGCA (site ACAGTATCTTG) | 2.08
CGAGTATCATGGACCGGTTTTCCCGGTAATCCGTATTTGCA (site CGAGTATCTTG) | 3
CGAGTCCCATGGACCGGTTTTCCCGGTAATCCGTATTTGTG (site GTCAGTTCTAG) | 0
CGATAAACATGGACCGGTTTTCCCGGTAATCCGTATTTGCT (site CGATAAACTAG) | 2.83
CGATAAACATGGACCGGTTTTCCCGGTAATCCGTATTTGCT (site CGATCATCTAG) | 0
CGATACACATGGACCGGTTTTCCCGGTAATCCGTATTTGCT (site CGATACACTAG) | 2.54
CGATAGTCATGGACCGGTTTTCCCGGTAATCCGTATTTGCC (site CGATAGTCTGG) | 2.66
CGATCAACATGGACCGGTTTTCCCGGTAATCCGTATTTGCG (site CGATCAACTCG) | 0.894
CGATCAACATGGACCGGTTTTCCCGGTAATCCGTATTTGCG (site CGATCATCTAG) | 0
CGATCAGCATGGACCGGTTTTCCCGGTAATCCGTATTTGTT (site CGATCAGCTAA) | 1.59
CGATCAGCATGGACCGGTTTTCCCGGTAATCCGTATTTGTT (site CGATCATCTAG) | 0
CGATCCTCATGGACCGGTTTTCCCGGTAATCCGTATTTGCG (site CGATCATCTAG) | 0
CGATCCTCATGGACCGGTTTTCCCGGTAATCCGTATTTGCG (site CGATCCTCTCG) | 2.64
CGATCCTCATGGACCGGTTTTCCCGGTAATCCGTATTTGCT (site CGATCATCTAG) | 0
CGATCCTCATGGACCGGTTTTCCCGGTAATCCGTATTTGCT (site CGATCCTCTAG) | 2.82
CGATCCTCATGGACCGGTTTTCCCGGTAATCCGTATTTGCT (site CGATCGTCTAG) | 0
CGATCCTCATGGACCGGTTTTCCCGGTAATCCGTATTTGCT (site CGATCTTCTAG) | 0
CGATCGACATGGACCGGTTTTCCCGGTAATCCGTATTTGAT (site CGATCGACTAA) | 0.0179
CGATCGACATGGACCGGTTTTCCCGGTAATCCGTATTTGAT (site CGATCGACTAC) | 0
CGATCGACATGGACCGGTTTTCCCGGTAATCCGTATTTGAT (site CGATCGACTAG) | 0
CGATCGACATGGACCGGTTTTCCCGGTAATCCGTATTTGAT (site CGATCGACTAT) | 0.807
CGATCGCCATGGACCGGTTTTCCCGGTAATCCGTATTTGTT (site CGATCGACTAA) | 0.0236

Sequence | recombinant UMI read abundance (log10)
CGATCGCCATGGACCGGTTTTCCCGGTAATCCGTATTTGTT (site CGATCGCCTAA) | 0.142
CGATCGCCATGGACCGGTTTTCCCGGTAATCCGTATTTGTT (site CGATCGGCTAA) | 0
CGATCGCCATGGACCGGTTTTCCCGGTAATCCGTATTTGTT (site CGATCGTCTAA) | 1.46
CGATCGTCATGGACCGGTTTTCCCGGTAATCCGTATTTGCT (site CGATCATCTAG) | 2.15
CGATCGTCATGGACCGGTTTTCCCGGTAATCCGTATTTGCT (site CGATCCTCTAG) | 0
CGATCGTCATGGACCGGTTTTCCCGGTAATCCGTATTTGCT (site CGATCGTCTAG) | 2.46
CGATCGTCATGGACCGGTTTTCCCGGTAATCCGTATTTGCT (site CGATCTTCTAG) | 0
CGATCTACATGGACCGGTTTTCCCGGTAATCCGTATTTGTT (site CGATCAACTAA) | 0.012
CGATCTACATGGACCGGTTTTCCCGGTAATCCGTATTTGTT (site CGATCCACTAA) | 0.0103
CGATCTACATGGACCGGTTTTCCCGGTAATCCGTATTTGTT (site CGATCGACTAA) | 0.00912
CGATCTACATGGACCGGTTTTCCCGGTAATCCGTATTTGTT (site CGATCTACTAA) | 0.246
CGATCTGCATGGACCGGTTTTCCCGGTAATCCGTATTTGCT (site CGATCATCTAG) | 0
CGATCTGCATGGACCGGTTTTCCCGGTAATCCGTATTTGCT (site CGATCTGCTAG) | 1.72
CGATGACCATGGACCGGTTTTCCCGGTAATCCGTATTTGCT (site CGATCATCTAG) | 0
CGATGACCATGGACCGGTTTTCCCGGTAATCCGTATTTGCT (site CGATGACCTAG) | 0
CGATGATCATGGACCGGTTTTCCCGGTAATCCGTATTTGAA (site CGATGATCTTT) | 2.86
CGATTAGCATGGACCGGTTTTCCCGGTAATCCGTATTTGCT (site CGATCATCTAG) | 0
CGATTAGCATGGACCGGTTTTCCCGGTAATCCGTATTTGCT (site CGATTAGCTAG) | 0
CGATTATCATGGACCGGTTTTCCCGGTAATCCGTATTTGAC (site CGATTATCTGT) | 1.98
CGATTATCATGGACCGGTTTTCCCGGTAATCCGTATTTGAC (site CTAGTATCTGT) | 1.07
CGATTATCATGGACCGGTTTTCCCGGTAATCCGTATTTGCA (site CGATCATCTAG) | 0
CGATTATCATGGACCGGTTTTCCCGGTAATCCGTATTTGCA (site CGATTATCTTG) | 2.39
CGATTATCATGGACCGGTTTTCCCGGTAATCCGTATTTGTT (site CGATCATCTAG) | 0

Sequence | recombinant UMI read abundance (log10)
CGATTATCATGGACCGGTTTTCCCGGTAATCCGTATTTGTT (site CGATTATCTAA) | 2.45
CGATTTACATGGACCGGTTTTCCCGGTAATCCGTATTTGCT (site CGATTTACTAG) | 1.76
CGCAATCCATGGACCGGTTTTCCCGGTAATCCGTATTTGAG (site CGCAATCCTCT) | 0.964
CGCACATCATGGACCGGTTTTCCCGGTAATCCGTATTTGCT (site CGAACATCTAG) | 0
CGCACATCATGGACCGGTTTTCCCGGTAATCCGTATTTGCT (site CGCACATCTAG) | 1.02
CGCACATCATGGACCGGTTTTCCCGGTAATCCGTATTTGCT (site CGGACATCTAG) | 0
CGCACATCATGGACCGGTTTTCCCGGTAATCCGTATTTGCT (site CGTACATCTAG) | 0
CGCACTCCATGGACCGGTTTTCCCGGTAATCCGTATTTGTT (site CGCACTCCTAA) | 0.808
CGCACTCCATGGACCGGTTTTCCCGGTAATCCGTATTTGTT (site CGGAATCCTAA) | 0
CGCATCACATGGACCGGTTTTCCCGGTAATCCGTATTTGCC (site CGCATCACTGG) | 1.78
CGCATCTCATGGACCGGTTTTCCCGGTAATCCGTATTTGTG (site CGCATCTCTCA) | 1.83
CGCATGCCATGGACCGGTTTTCCCGGTAATCCGTATTTGCA (site CGCATGCCTTG) | 0.808
CGCCACACATGGACCGGTTTTCCCGGTAATCCGTATTTGTA (site CACCACACTTA) | 0.727
CGCCACACATGGACCGGTTTTCCCGGTAATCCGTATTTGTA (site CCCCACACTTA) | 0.261
CGCCACACATGGACCGGTTTTCCCGGTAATCCGTATTTGTA (site CGCCACACTTA) | 1.95
CGCCACACATGGACCGGTTTTCCCGGTAATCCGTATTTGTA (site CTCCACACTTA) | 0.241
CGCCATACATGGACCGGTTTTCCCGGTAATCCGTATTTGCT (site CGCCATACTAG) | 1.64
CGCCATACATGGACCGGTTTTCCCGGTAATCCGTATTTGCT (site CGCCCTACTAG) | 0.00847
CGCCATACATGGACCGGTTTTCCCGGTAATCCGTATTTGCT (site CGCCGTACTAG) | 0
CGCCATACATGGACCGGTTTTCCCGGTAATCCGTATTTGCT (site CGCCTTACTAG) | 0.046
CGCCGCTCATGGACCGGTTTTCCCGGTAATCCGTATTTGCC (site CGCCGCTCTGG) | 2.47
CGCCTAACATGGACCGGTTTTCCCGGTAATCCGTATTTGGG (site CGCCTAACTCC) | 0.0879
